We go through three compounds from patent US8497240B2 (priority 2006, dated 2013).

The format of assay [1] is in vivo, NIH/Swiss mice.
Procedure: (§1) In FIG. 3A, bars represent mean±sd, n=6-10. […] Gavage (1.5 g/kg) was given at t=0, Sample was taken at t=30 min. […] In FIG. 3B, points represent mean±sem, n=8-15.
Peptide was injected IP at t=−5 minutes into 4-hour fasted NIH/Swiss female mice. […] In FIG. 17 points represent mean+/−sem. […] Samples were taken at t=60, t=120 and t=180.
The target of another assay is human GIP receptor. The assay is described as follows: biochemical. Format: binding. The following applies: read-out: GIP RBA.
The conditions of assay [2]: 30, 60 90 μg, men with IDDM; cited from earlier work.
Assay [3] can be described thus: Intravenous glucose tolerance test (IVGTT), i.v. infusion. Format: in vivo, rat. As to conditions: 100 pmol/kg/min infusion, rats.
Procedure: In the typical IVGTT assays the test sample was administered by IV infusion. The IV infusion of sample was initiated at t=−30 min and continued through t=90. IV glucose was given at t=0. To determine a duration of action using the IVGTT assay, the sample was injected SC as a single injection at one time point indicated (e.g., t=−240, −120, −60 or −30) prior to administration of glucose. IV glucose was given at t=0.
As described, fed, isoflurane anesthetized HSD male rats were intubated and cannulated via femoral artery and vein and allowed to stabilize for 1 hour. […] At t=0, an i.v. bolus of 5.7 mmol/kg D-glucose was administered over 2 minutes. Samples for glucose measurement and insulin concentrations were taken at various time points before and after (0 to 90 minutes) glucose infusion.
Assay [4] is described as follows: Body composition in DIO mice. Format: in vivo, C57BL/6J mice. The following applies: DIO mice.
Source text: During the study, the mice can continue to eat their high-fat diet. Water can be provided ad libitum throughout the study.
DIO mice can be implanted with subcutaneous (SC) intrascapular osmotic pumps to deliver either vehicle (50% dimethylsulfoxide (DMSO) in water) or a compound of the invention. […] Body weights and food intake can be measured over regular intervals throughout the study periods. Respiratory quotient (RQ, defined as CO2 production÷O2 consumption) and metabolic rate can be determined using whole-animal indirect calorimetry (Oxymax, Columbus Instruments, Columbus, Ohio). The mice can be euthanized by isoflurane overdose, and an index of adiposity (bilateral epididymal fat pad weight) measured. Moreover, prior to determination of epididymal weight, body composition (lean mass, fat mass) for each mouse can be analyzed using a Dual Energy X-ray Absorptiometry (DEXA) instrument per manufacturer's instructions (Lunar Piximus, GE Imaging System).
The target of assay [5] is cardiomyocyte Gs-coupled receptors. As to the kind of experiment: cAMP production in neonatal cardiomyocytes (HTRF, Gs-coupled receptor activation). Format: cell-based, rat. The following applies: neonatal rat cardiomyocytes.
Procedure: Activation of cardiomyocyte Gs- and Gi-coupled receptors was determined as a measure of cAMP production.
Neonatal cardiomyocytes were isolated using a commercially available system. […] Sprague Dawley neonatal rats (1-2 days old) were decapitated and the beating heart dissected out into digestion buffer (Cellutron D1 buffer) to dissociate cells. […] The resuspended cells incubated in buffer (Cellutron D3 buffer) for sufficient time to allow optimal dispersion and minimize the need for pipetting to break up clumps. Cells released from the first 2 digestions were discarded since a significant portion of these is red blood cells. Resuspended cells were filtered and allowed to pre-plate for 1 hour on plastic in an incubator in NS media (Cellutron, N.J.) in order to remove fibroblasts. After 1 hour of pre-plating, floating cells are removed and the flask rinsed with NS media. The floating cells and the cells in the rinse media were combined and counted. Residual red blood cells, which are smaller that the cardiac myocytes, were not counted.
At Day 1, the NS media was replaced with fresh NS media.
Dose response was determined.
For Gs assays the positive control was 10 uM forskolin and negative control was buffer. For Gi assays the positive control was buffer and the negative control was 10 uM forskolin.
The format of assay [6] is in vivo, db/db mice. The following applies: db/db mice, IP.
Procedure: Peptide was injected IP at t=0 immediately following baseline sample into 2-hour fasted db/db mice.
The nature of assay [7]: Intracellular calcium levels (FIG. 23B). A general note: Calcium assays in cells follow changes in intracellular calcium, usually with a dye or a luminescent sensor.
For assay [8] the following is noted: conscious rats, 100 μg; cited from earlier work.
Assay [9] is classed as in vivo, NIH/Swiss mice. The source holds these as a separate data set.
Procedure: as §1
Points represent mean±sem.
Assay [10] in a line: Glucose in rats (summary table). Format: in vivo, rat.
A short description of assay [11]: Gastric emptying (FIG. 23A). As to conditions: in vivo.
A short description of assay [12]: Telemetry of circulatory effects in conscious rats. The following applies: 80 nmol/kg intravenous.
Assay [13] can be described thus: Body weight gain in diet-induced-obesity (DIO) mice. Format: in vivo, C57BL/6 mice.

Like-named read-outs stand apart in the source and are kept apart here.

In the case of `CC[C@H](C)[C@H](NC(=O)[C@H](CO)NC(=O)[C@H](Cc1ccc(O)cc1)NC(=O)[C@H](CC(=O)O)NC(=O)[C@H](CO)NC(=O)[C@@H](NC(=O)[C@H](Cc1ccccc1)NC(=O)[C@@H](NC(=O)CNC(=O)[C@H](CCC(=O)O)NC(=O)[C@@H](C)NC(=O)[C@@H](N)Cc1ccc(O)cc1)[C@@H](C)O)[C@@H](C)CC)C(=O)N[C@@H](C)C(=O)N[C@@H](CCSC)C(=O)N[C@@H](CC(=O)O)C(=O)N[C@@H](CCCCN)C(=O)N[C@H](C(=O)N[C@@H](Cc1c[nH]cn1)C(=O)N[C@@H](CCC(N)=O)C(=O)N[C@@H](CCC(N)=O)C(=O)N[C@@H](CC(=O)O)C(=O)N[C@@H](Cc1ccccc1)C(=O)N[C@H](C(=O)N[C@@H](CC(N)=O)C(=O)N[C@@H](Cc1c[nH]c2ccccc12)C(=O)N[C@@H](CC(C)C)C(=O)N[C@@H](CC(C)C)C(=O)N[C@@H](C)C(=O)N[C@@H](CCC(N)=O)C(=O)N[C@@H](CCCCN)C(=O)N[C@@H](CO)C(=O)NCC(=O)N[C@@H](C)C(=O)N1CCC[C@H]1C(=O)N1CCC[C@H]1C(=O)N1CCC[C@H]1C(=O)N[C@@H](CO)C(N)=O)C(C)C)[C@@H](C)CC` [0601GIP4192], the “OGTT/GL (%)” value in [1] (350 nmol/kg) is recorded as −16%. The IC50 on human GIP receptor worked out at 7 nM.
For the compound `CC[C@H](C)[C@H](NC(=O)[C@@H]1CCCN1C(=O)CNC(=O)[C@H](Cc1ccccc1)NC(=O)[C@H](CC(N)=O)NC(=O)[C@H](CC(N)=O)NC(=O)[C@H](CO)NC(=O)[C@H](CO)NC(=O)[C@H](Cc1c[nH]cn1)NC(=O)[C@@H](NC(=O)[C@H](CC(C)C)NC(=O)[C@H](Cc1ccccc1)NC(=O)[C@H](CC(N)=O)NC(=O)[C@H](C)NC(=O)[C@H](CC(C)C)NC(=O)[C@H](CCCNC(=N)N)NC(=O)[C@H](CCC(N)=O)NC(=O)[C@@H](NC(=O)[C@H](C)NC(=O)[C@@H]1CSSC[C@H](NC(=O)[C@@H](N)CCCCN)C(=O)N[C@@H](CC(N)=O)C(=O)N[C@@H]([C@@H](C)O)C(=O)N[C@@H](C)C(=O)N[C@@H]([C@@H](C)O)C(=O)N1)[C@@H](C)O)C(C)C)C(=O)N[C@@H](CC(C)C)C(=O)N1CCC[C@H]1C(=O)N1CCC[C@H]1C(=O)N[C@H](C(=O)N[C@@H](CC(N)=O)C(=O)N[C@H](C(=O)NCC(=O)N[C@@H](CO)C(=O)N[C@@H](CC(N)=O)C(=O)N[C@H](C(=O)N[C@@H](Cc1ccc(O)cc1)C(N)=O)[C@@H](C)O)C(C)C)[C@@H](C)O` [pramlintide, ^25,28,29Pro-h-amylin], in assay [2], the “half-emptying time of the stomach” value is recorded as “approximately doubled the half-emptying time of the stomach”.
Consider “YAEGTFISDYSIAMDKIHQQDFVNWLLAQKGKKNDWKHNITQ-OH [GIP, reference compound]”, for which the OGTT entry in assay [1] (mice, effect on glucose) was “decreases”. The OGTT response in assay [1] (mouse, in vivo) was −10%. In [3], the “insulin levels prior to the glucose challenge” value is “significant rise in insulin levels” and the “insulinotropic response to an intravenous glucose challenge (IVGTT assay)” value is recorded as “significant enhancement of the insulinotropic response”. In assay [4], the “Body Comp (mDIO)” value is reported as “No effect on lean mass”. Also, in assay [5] (30 minutes, read-out: EC50 of cAMP production (this experiment, FIGS. 18A/18B)), the EC50 was determined as 9.1 nM. For the same compound, the EC50 in [5] (read-out: EC50 of cardiomyocyte Gs-coupled receptor activation (three independent experiments)) came to 15.6 nM. For the same compound, in [6], the “glucose lowering in a diabetic mouse model (FIG. 4)” value is “modest and wanes over time”. In addition, for the setting “mice, peptide injected IP”, the “food intake” value is recorded as “not active”. Moreover, the food intake entry (mouse, in vivo, ip) is given as “did not acutely inhibit food intake”. Besides, the iCa result in assay [7] is given as “not active”. For the same compound, in assay [8], the “inhibition of gastric emptying at doses of 100 μg” value is “either weakly active or inactive”. Besides, the Glucose mice entry in assay [9] (mice) is recorded as “weak”. In addition, the “basal glucose lowering (% maximal decrease)” value in [9] (mouse, in vivo) was found to be 0%. Besides, the Glucose rats entry in [10] is “not active”. Also, in assay [11], the “Gastric Emptying” value was “not active”. In [12], the dP/dt entry is reported as “increased dP/dt similarly” and the “effect on mean arterial pressure” value is “had no effect”. For the same compound, in assay [13] (DIO mice), the “BWt (mDIO)” value was “not active”. In addition, the “weight loss / body weight change in diet-induced-obese mice” value in [13] (mouse, in vivo) is listed as “did not cause weight loss”.
